Target: T1, human CIC-1 channels (Homo sapiens, UniProt P35523)
T1 construct: host or cells: CHO (Chinese hamster ovary) cells constitutively expressing human ClC-1
Assay: Automated whole cell patch clamp (Qpatch 16) on CHO cells expressing human CIC-1, compound added intracellularly
Type: cell-based
Conditions: compound in intracellular solution vs vehicle control patches, positive shift reflects CIC-1 inhibition
Method: The investigatory goal of these experiments was to evaluate how compounds affect the open probability and current amplitude of human CIC-1 channels expressed in CHO cells. Experiments were performed using an automated patch clamp system that allowed high throughput testing of whole cell patches together with both intracellular and extracellular addition of compound.
Automated whole cell patch clamp experiments were performed with the Qpatch 16 system (Sophion Bioscience, Ballerup, Denmark) at room temperature. Data acquisition and analysis were performed in the Qassay software (ver. 5.6, Odense).
To evoke CIC-1 currents in whole cell patches, the membrane potential was initially stepped from a holding potential of −30 mV to +60 mV for 100 ms and then to various test voltages (sweeps) ranging from +120 mV to −140 mV in steps of 20 mV for 300 ms. To obtain tail currents, the membrane potential was stepped to −100 mV after each test voltage for 300 ms and then relaxed to −30 mV for 2 sec between sweeps (FIG. 1). I/V relationships for whole cell instant and steady state current amplitudes were obtained by plotting average current densities at the beginning and at the end of the 300 ms step against the membrane potential (FIG. 2).
In order to determine the relative overall open probability (P0), the instantaneous tail currents were normalized to the maximal tail current obtained following the most positive voltage step and plotted against the test voltage. Plots of normalized tail currents from each whole cell patch were then fitted to a Boltzmann function allowing determination of half activation voltages (V1/2, FIG. 3).
For automated patch clamp experiments extracellular solutions contained: 2 mM CaCl2, 1 mM MgCl2, 10 mM HEPES, 4 mM KCl, 145 mM NaCl, 10 mM Glucose, pH adjusted to 7.4 with NaOH (2 M). Osmolality adjusted to ˜320 using sucrose.
Intracellular solutions contained: 80 mM CsF, 60 mM CsCl, 5/1 mM KOH/EGTA, 10 mM HEPES, 10 mM NaCl, pH adjusted to 7.2 with NaOH (2 M). Osmolality adjusted to ˜320 mOsm using sucrose.
Cells used in patch clamp experiments were Chinese hamster ovary cells (CHO) constitutively expressing human CIC-1 channels. The amino acid sequence encoded by the cDNA used to create this cell line was identical to the translated sequence for GenBank accession number NM_000083.2. Cells were produced by Charles River (Catalogue CT6175, Cleveland OH, USA) in a cryopreserved format. Experiments were performed on the cells directly after thawing (3×10^6 cells used in each experiment).
To evaluate the compound effect on CIC-1, when applied directly to the intracellular side of the cell membrane, the half activation voltage, V1/2, was determined from whole cell patches with compound added to the intracellular solution and then compared to V1/2 determined from control cell patches with only vehicle added to the intracellular solution. Additionally, the effect of extracellular added compound was evaluated by determine V1/2 and steady state current amplitudes before and after exchanging the extracellular solution to contain compound.
The difference in half activation voltage of CIC-1 channels, ΔV1/2, was determined as the difference between the cell patches treated intracellularly with compound and control cells patches and is reported in Table 1 below. A positive shift in ΔV1/2 is reflecting CIC-1 channel inhibition by the tested compound. P-values of <0.05 is considered significant.

T1 sequence (P35523 whole entry): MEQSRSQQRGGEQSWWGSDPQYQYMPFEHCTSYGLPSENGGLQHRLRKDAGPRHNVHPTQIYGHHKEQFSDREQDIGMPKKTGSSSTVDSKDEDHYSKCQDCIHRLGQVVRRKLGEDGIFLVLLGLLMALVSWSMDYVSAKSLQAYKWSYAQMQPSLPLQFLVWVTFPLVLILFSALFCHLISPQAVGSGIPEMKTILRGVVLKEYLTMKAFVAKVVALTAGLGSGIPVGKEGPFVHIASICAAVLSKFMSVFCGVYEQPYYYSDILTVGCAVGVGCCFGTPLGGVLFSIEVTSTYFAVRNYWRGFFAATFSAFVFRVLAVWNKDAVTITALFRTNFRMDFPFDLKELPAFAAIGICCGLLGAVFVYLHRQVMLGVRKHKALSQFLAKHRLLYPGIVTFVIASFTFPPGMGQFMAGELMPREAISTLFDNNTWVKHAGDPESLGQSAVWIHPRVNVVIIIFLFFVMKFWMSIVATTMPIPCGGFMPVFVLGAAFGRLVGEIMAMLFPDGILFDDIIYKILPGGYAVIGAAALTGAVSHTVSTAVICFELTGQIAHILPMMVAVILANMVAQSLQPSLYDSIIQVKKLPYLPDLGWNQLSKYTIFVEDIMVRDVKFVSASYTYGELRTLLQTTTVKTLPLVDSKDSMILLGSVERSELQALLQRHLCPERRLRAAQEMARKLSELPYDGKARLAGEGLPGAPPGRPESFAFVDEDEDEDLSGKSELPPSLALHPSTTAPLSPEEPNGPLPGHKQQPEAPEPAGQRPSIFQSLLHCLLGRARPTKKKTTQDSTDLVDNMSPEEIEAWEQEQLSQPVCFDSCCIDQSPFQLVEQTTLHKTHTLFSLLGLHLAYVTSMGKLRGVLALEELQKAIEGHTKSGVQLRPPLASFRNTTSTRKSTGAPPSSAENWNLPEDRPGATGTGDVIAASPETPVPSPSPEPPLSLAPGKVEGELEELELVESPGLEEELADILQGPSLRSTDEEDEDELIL

Shift in half activation voltage, ΔV1/2 | SMILES
17.7 mV | C[C@H](Oc1cc(F)c(Br)cc1-c1ccon1)C(=O)O [(2S)-2-[4-bromo-5-fluoro-2-(1,2-oxazol-3-yl)phenoxy]propanoic acid]
8.1 mV | C[C@H](Oc1ccc(Cl)cc1-c1ccon1)C(=O)O [(2S)-2-[4-chloro-2-(1,2-oxazol-3-yl)phenoxy]propanoic acid]
7.2 mV | CC[C@H](Oc1ccc(Br)cc1-c1ccon1)C(=O)O [(2S)-2-[4-bromo-2-(1,2-oxazol-3-yl)phenoxy]butanoic acid]
11.3 mV | O=C(O)COc1ccc(Br)cc1-c1ccon1 [2-[4-bromo-2-(1,2-oxazol-3-yl)phenoxy]acetic acid]
14.1 mV | C[C@H](Oc1ccc(Br)cc1-c1ccon1)C(=O)O [(2S)-2-(4-bromo-2-(isoxazol-3-yl)phenoxy)propanoic acid]
